Laboratory results published in publication PMC8582824, “Targeting DDX3X Helicase Activity with BA103 Shows Promising Therapeutic Effects in Preclinical Glioblastoma Models” (Cancers, 2021).

Legend:
ATPase DDX3X = biological target: T1, ATPase DDX3X (Homo sapiens, UniProt O00571); assay: DDX3X ATPase activity inhibition; type: biochemical; settings: for IC50: >200 = less than 20% inhibition at 200 µM, highest concentration tested, read-out: ATPase DDX3X IC50 ± SD
T1 construct: Recombinant his-tagged human full length DDX3X; His tag; made in house; host or cells: ShuffleT7 E. coli
Excerpt: To confirm the proposed mechanism of action and the selectivity of our compounds for the helicase binding site, we tested the capability of BA103 to inhibit the ATPase activity of DDX3X and the helicase activity of DDX1, which is another human member of the DEAD-box family.

BJ primary fibroblasts = assay: Cytotoxicity against BJ primary fibroblasts; type: cell-based
Description: For CellTiter 96® Aqueous One Solution Cell Proliferation Assay (MTS) (Promega, Madison, WI, USA), cells were seeded at 5 × 10^3 per well in 96-well plates in quadruplicate together a control with no cells to evaluate the background. After 24 h, the culture medium was removed, and fresh medium containing increasing concentrations of chemical compounds was added to cells. The fixed final concentrations were 0.1 μM, 1 μM, 10 μM, and 100 μM. DMSO was the vehicle used for dilution of the compounds, and its final concentration on cells was less than 0.2%. Medium-only containing wells were included as controls. Cells were incubated with compounds at different concentrations for 72 h, then, 20 µL of CellTiter 96® AQueous One Solution Reagent was added into each well. After 3 h at 37 °C in a humidified, 5% CO2 atmosphere, the absorbance at 492 nm was recorded using an EZREAD400 (Biochrom, Cambridge, United Kingdom) plate reader. The average 490 nm absorbance from the “no cell” control wells was subtracted from all other values to yield background-corrected absorbance. Dose–response curves and CC50 values have been calculated by plotting the absorbance data as a function of inhibitor concentrations and fitting the data by least-squares nonlinear regression, according to the method of Marquardt–Levenberg, with the computer program GraphPad Prism 6.0.
Cells were incubated with a scalar concentration of DDX3X inhibitors, and after 72 h of treatment, cell viability was assessed by cytotoxicity assay. […] Compounds 4, 6, and BA103 were also evaluated against BJ primary fibroblasts; compound 4 has a cytotoxicity value of 84.7 μM; on the contrary, compounds 6 and BA103 were not toxic up to 200 μM concentration. This further excluded a possible nonspecific cytotoxic effect. […] Due to its interesting profile, compound BA103 was further tested against additional pulmonary (A549), breast (MDA-MB-231), colorectal (HCT-116), osteosarcoma (U2OS), rhabdomyosarcoma (RD18), GBM (DBTRG, U87, and U251) and medulloblastoma (DAOY) cancer cell lines.

[1] = tested on: U87 cells intracerebral xenograft; assay: Orthotopic U87 xenograft model of GBM; type: in vivo, CD1 nude mice; settings: 50 mg/kg i.p., three times per week for three weeks, observed two months
Description: In CD1 nude mice, 3 × 10^3 U87 cells were injecting intracerebrally using a stereotactic frame (Stoelting Europe, Dublin, Ireland). Optimization of the protocol for treatment procedures was based on previously published data performed in the same experimental in vivo model. A volume of 3 μL was inoculated by a sterile Hamilton syringe with a 26-gauge needle inserted at a depth of 3.0 mm from the skull surface. Five days after injection, animals were randomized to control and treated groups. […] For in vivo administration, BA103 was administered i.p. in a saline solution containing 10% v/v DMSO and 10% v/v TWEEN 80. Each mouse received 50 mg/kg BA103, or vehicle, three times per week.
Figure 9 Biological activity of BA103 in xenograft models of GBM. (A–D) Mice were inoculated s.c. with U87 cells, randomly distributed in two groups (CTR and BA103), and treated according to the protocol shown in panel (A). Tumor growth was monitored by measuring tumor volume (B), and at the end point, tumors were weighed, and the resulting mean values for each group are reported in the histogram (C). Recovered tumor masses were processed for analysis of DDX3X expression by immunohistochemistry, and representative images acquired at 400× magnification are shown in panel (D). (E) Survival curve from in vivo orthotopic model of GBM. […] Mice were monitored for two months after U87 cells inoculation. […]

HepG2 = assay: MTS cytotoxicity assay, HepG2 cells; type: cell-based; settings: HepG2, 72 h
Description: For CellTiter 96® Aqueous One Solution Cell Proliferation Assay (MTS) (Promega, Madison, WI, USA), cells were seeded at 5 × 10^3 per well in 96-well plates in quadruplicate together a control with no cells to evaluate the background. After 24 h, the culture medium was removed, and fresh medium containing increasing concentrations of chemical compounds was added to cells. The fixed final concentrations were 0.1 μM, 1 μM, 10 μM, and 100 μM. DMSO was the vehicle used for dilution of the compounds, and its final concentration on cells was less than 0.2%. Medium-only containing wells were included as controls. […] After 3 h at 37 °C in a humidified, 5% CO2 atmosphere, the absorbance at 492 nm was recorded using an EZREAD400 (Biochrom, Cambridge, United Kingdom) plate reader. The average 490 nm absorbance from the “no cell” control wells was subtracted from all other values to yield background-corrected absorbance. Dose–response curves and CC50 values have been calculated by plotting the absorbance data as a function of inhibitor concentrations and fitting the data by least-squares nonlinear regression, according to the method of Marquardt–Levenberg, with the computer program GraphPad Prism 6.0.
Cells were incubated with a scalar concentration of DDX3X inhibitors, and after 72 h of treatment, cell viability was assessed by cytotoxicity assay. […]

T1 sequence (O00571 whole entry): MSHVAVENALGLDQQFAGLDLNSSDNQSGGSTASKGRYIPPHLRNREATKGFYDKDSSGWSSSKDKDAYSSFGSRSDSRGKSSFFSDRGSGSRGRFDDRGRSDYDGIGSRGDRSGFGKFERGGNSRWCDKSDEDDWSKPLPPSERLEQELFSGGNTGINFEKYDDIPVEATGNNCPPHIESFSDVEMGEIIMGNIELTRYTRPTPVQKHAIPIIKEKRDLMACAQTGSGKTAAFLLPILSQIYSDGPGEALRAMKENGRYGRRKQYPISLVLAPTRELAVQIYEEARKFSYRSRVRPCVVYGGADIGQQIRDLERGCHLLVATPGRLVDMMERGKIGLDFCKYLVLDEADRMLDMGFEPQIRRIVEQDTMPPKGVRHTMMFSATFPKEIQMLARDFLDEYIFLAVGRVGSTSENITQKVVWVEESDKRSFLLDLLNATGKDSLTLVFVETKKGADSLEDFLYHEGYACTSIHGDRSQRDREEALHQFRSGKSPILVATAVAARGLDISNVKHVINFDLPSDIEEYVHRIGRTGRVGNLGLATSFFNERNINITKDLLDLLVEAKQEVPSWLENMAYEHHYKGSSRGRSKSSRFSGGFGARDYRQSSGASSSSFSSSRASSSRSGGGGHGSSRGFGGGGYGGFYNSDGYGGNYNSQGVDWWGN

inhibition of the ATPase activity of DDX3X (ATPase DDX3X; any compound concentration)	SMILES	IC50 (ATPase DDX3X)	cytotoxicity value (BJ primary fibroblasts)	mice alive at the endpoint [1]	CC50 (HepG2)
no inhibition	CCCCc1cn(-c2ccc(NC(=O)Nc3ccccc3C(F)(F)F)cc2)nn1 [BA103, 1-(4-(4-Butyl-1H-1,2,3-triazol-1-yl)phenyl)-3-(2-(trifluoromethyl)phenyl)urea]	> 200 µM	> 200 µM	seven out of eight	low micromolar range
	CCCCn1nnc(-c2ccc(NC(=O)Nc3ccccc3C(F)(F)F)cc2)n1 [Compound 6, 1-(4-(2-Butyl-2H-tetrazol-5-yl)phenyl)-3-(2-(trifluoromethyl)phenyl)urea]		> 200 µM		
	CCCCc1cn(-c2ccc(NC(=O)Nc3ccccc3C)cc2)nn1 [Compound 1, reference compound]	> 200 µM			
	CCCCc1nnc(-c2ccc(NC(=O)Nc3ccccc3C(F)(F)F)cc2)[nH]1 [Compound 4, 1-(4-(5-Butyl-4H-1,2,4-triazol-3-yl)phenyl)-3-(2-(trifluoromethyl)phenyl)urea]		84.7 µM		
